Laboratory results: patent US20260053765A1, “COMPOSITIONS AND METHODS FOR THE IMPROVEMENT OF MEMORY” (THE CHILDREN'S HOSPITAL OF PHILADELPHIA, priority 2016, published 2026)

Legend:
[1] = tested on: fluid percussion injury mice; experiment: Conditioned fear response (CFR) after fluid percussion injury, GTA by oral gavage; format: in vivo, mouse; settings: 5 mg/kg GTA oral gavage for 5 days, CFR on day 7
Method: A fluid percussion injury assay was performed. Briefly, a craniotomy was performed on anesthetized mice using a 3 mm trephine and a Luer-Hoc needle hub attached to the skull and capped. The following day, a fluid percussion injury device was employed to deliver a pulse of saline through the hub at a pressure between 1.4-2.14 atm, producing a mild to moderate percussion injury. Sham animals received all anesthesia and surgical procedures except for the fluid pulse.
Mice were allowed to recover for one day. Mice were then treated with 5 mg/kg of glyceryl triacetate (GTA) via oral gavage for 5 days. The conditioned fear response (CFR) assay was performed on day 7.

[2] = within one hour of administration; cited from earlier work

CC(=O)OCC(COC(C)=O)OC(C)=O [GTA, glyceryl triacetate]
conditioned fear response (freezing) [1]: showed a similar fear response to sham animals and a statistically superior (P<0.05) response to those mice receiving the brain injury without treatment
increase of acetate levels in the brain [2]: over 15 fold
